# Assay results published in patent publication US12650432B2, “SCARA5 and DIO2 as biomarkers for miscarriage and implantation failure” (The University of Warwick, priority 2019, dated 2026).
# Where “and” joins values, the source holds several entries; their conditions need not be identical. Equal entries are not always repeated. Marks after values point to notes of the source that are not given here.
# What was measured:
# IGFBP1 = experiment: RT-qPCR of IGFBP1 transcript in paired endometrial biopsies; assay type: in vivo, human; settings: second vs baseline biopsy, oral 100 mg daily for 3 cycles, n=16
# Description: (§1) RNA was extracted from RNAlater preserved tissue using the RNeasy Lipid Tissue Mini Kit (QIAGEN, Manchester, UK), with on-column DNase treatment, according to the manufacturer's instructions. RNA was assessed using a Nanodrop ND-1000 spectrophotometer and 1 μg RNA used for reverse transcription, performed using the Quantitect Reverse Transcription Kit (QIAGEN) according to manufacturer's instructions. Thermal cycling was performed on a QuantStudio 5 Real-Time PCR System (ThermoFisher, Paisley, UK), using PrecisionPlus 2× Mastermix (Primer Design, Southampton, UK), 300 nM each forward and reverse primers and 1 μl cDNA. L19 was used as a reference gene and data were analysed using the Pfaffl method (68).
# (§2) Induction of PRL and IGFBP1 expression is widely used to monitor the decidual response in cultured EnSC (14).
# DIO2 = experiment: RT-qPCR of DIO2 mRNA (senescent decidual cell marker) in paired endometrial biopsies; assay type: in vivo, human
# Description: as §1, §2
# [1] = Adverse events and side effects in trial participants; assay type: in vivo, human
# Description: (§3) Following written informed consent, participants were given a digital home ovulation test kit (Clearblue, Geneva, Switzerland), an emergency contact card, and barrier contraception. Participants then attended the clinic 7-10 days after the luteinizing hormone (LH) surge (LH+7-10). Following a negative urine pregnancy test, a transvaginal pelvic ultrasound scan was performed. Endometrial thickness was defined as the maximal endometrium diameter measured in a mid-sagittal plane. Next, an endometrial biopsy was obtained using a Wallach Endocell® endometrial sampler. The sample, designated ‘baseline biopsy’, was immediately portioned with one part stored in RNALater Stabilization Solution (Sigma-Aldrich, Dorset, UK) one part snap frozen in liquid nitrogen, one part fixed in 10% formalin for immunohistochemistry, and the remainder placed in 10% DMEM/F12 for isolation of primary endometrial stromal cells (see below). Following randomisation (see below), trial medication was provided and all participants attended two follow-up clinics at 4 weeks±4 day intervals. At these follow-up visits a urine pregnancy test was carried out, symptom diaries were reviewed, adverse events reported, and willingness for continued participation confirmed. At the second follow-up visit, participants were provided with another home ovulation test kit. In the third cycle, participants attended the clinic on LH+7-10 for a repeat transvaginal ultrasound scan with measurement of endometrial thickness and endometrial biopsy. The sample, designated ‘second biopsy’, was processed identically to the baseline biopsy. Trial medication was stopped on the day of the second biopsy.
# (§4) Participants were provided with compliance and symptom diaries at each visit. Diaries were assessed at every follow-up or biopsy visit. Acceptability and satisfaction of the study was assessed with a Likert scale-based questionnaire completed by participants after their final visit. Participants who conceived after completion of the study were requested to contact the trial team and outcome of the first pregnancy within one year of study completion was recorded.
# [2] = system: haematopoietic stem and progenitor cells; settings: up to 600 mg twice daily, after umbilical cord blood transplantation; cited from earlier work
# PRL = experiment: RT-qPCR of PRL transcript in paired endometrial biopsies; assay type: in vivo, human; settings: second vs baseline biopsy, oral 100 mg daily for 3 cycles, n=16
# Description: as §1, §2
# [3] = granulocyte-CSF-dependent mobilisation of BMDC followed by sitagliptin 100 mg for 28 days; cited from earlier work
# [4] = system: endometrial stromal cells (EnSC); experiment: Colony-forming unit (CFU) assay on EnSC from paired endometrial biopsies, randomised placebo-controlled trial in RPL patients; assay type: in vivo, human
# From the text: Participants were recruited from a tertiary recurrent miscarriage clinic at UHCW NHS Trust. […] Participants agreed to actively avoid pregnancy and use barrier contraception for the duration of the trial.
# Participants were instructed to take the capsules once daily from the day of the baseline biopsy for 3 menstrual cycles until the second biopsy was taken. The control group were allocated identical placebo capsules also supplied by Sharp Clinical Services and instructed to take these exactly as the intervention group.
# as §3
# Primary EnSC were isolated according to our published protocol (65). Briefly, samples were washed in DMEM/F-12 medium (Invitrogen), finely minced and enzymatically digested with 0.5 mg/ml collagenase (Sigma-Aldrich) and 0.1 mg/ml deoxyribonuclease type I (Roche, Burgess Hill, UK) for 1 hour in 5% CO2 at 37° C. Stromal and epithelial fractions were separated and cryopreserved in 10% DMSO in dextran-coated charcoal-stripped fetal bovine serum (DCC; 2 ml per vial; Invitrogen), with the stromal fraction split into two or three vials depending on the biopsy size. After controlled cooling at −80° C. overnight, samples were transferred to liquid nitrogen for storage.
# All CFU assays were conducted in batches, consisting of paired primary endometrial stromal cells isolated from baseline and second biopsies from 3 or 4 participants. CFU assays were established as described previously (66). Briefly, cryopreserved stromal cells were thawed for 3 minutes at 37° C. and then transferred immediately into pre-warmed growth medium (DMEM-F12 medium containing 10% DCC supplemented with 1% L-Glutamine and 1% antibiotic-antimycotic mix; Invitrogen). Cells were pelleted by centrifugation at 276×g for 5 minutes, supernatant was aspirated and cells were resuspended in 10 ml growth medium. Viable stromal cells were counted in trypan blue on a Neubauer Improved haemocytometer and seeded at clonal density (53 cells/cm2) onto fibronectin-coated 6-well plates (10 μg/ml in PBS; Sigma-Aldrich) in growth medium supplemented with […] basic fibroblast growth factor (Sigma Aldrich). Three wells, containing 500 cells each, were seeded per biopsy. Plates were cultured in 5% CO2 at 37° C., and left undisturbed for 3 days after which growth was monitored to ensure colonies arose from single cells.
# SCARA5 = experiment: RT-qPCR of SCARA5 mRNA (decidual cell marker) in paired endometrial biopsies; assay type: in vivo, human; settings: second vs baseline biopsy, oral 100 mg daily for 3 cycles, n=16
# Description: as §1, §2
# [5] = Outcome of first pregnancy within 12 months after study completion; assay type: in vivo, human; settings: sitagliptin group
# Description: as §4
# [6] = sitagliptin group (n = 16), baseline biopsy before treatment
structure (smiles),measurement,setting,value
N[C@@H](CC(=O)N1CCn2c(nnc2C(F)(F)F)C1)Cc1cc(F)c(F)cc1F [sitagliptin],IGFBP1 transcript level normalized to L19,IGFBP1,not significantly different
same,"DIO2 mRNA level, median, second biopsy","DIO2; after 3 cycles oral 100 mg daily, n=16, normalized to L19, P=0.0182 vs baseline",3.86 a.u.
same,"DIO2 mRNA level, median, baseline biopsy","DIO2; sitagliptin group before treatment, n=16, normalized to L19",5.09 a.u.
same,"Adverse events, overall statement",[1]; pre-pregnancy sitagliptin treatment in RPL patients,no adverse events were reported
same,"Chills, events",[1]; sitagliptin group n = 19,1
same,"Diarrhoea, events",[1]; sitagliptin group n = 19,0
same,"Dizziness, events",[1]; sitagliptin group n = 19,2
same,"Dizziness, participants",[1]; sitagliptin group n = 19,1
same,"Dry Nose, events",[1]; sitagliptin group n = 19,0
same,"Dry mouth, events",[1]; sitagliptin group n = 19,1
same,"Headache, events",[1]; sitagliptin group n = 19,10
same,"Headache, participants",[1]; sitagliptin group n = 19,4
same,"Low Mood, events",[1]; sitagliptin group n = 19,1
same,"Mouth ulcers, events",[1]; sitagliptin group n = 19,0
same,"Myalgia, events",[1]; sitagliptin group n = 19,1
same,"Nausea, events",[1]; sitagliptin group n = 19,1
same,"Night sweats, events",[1]; sitagliptin group n = 19,1
same,"Nose bleed, events",[1]; sitagliptin group n = 19,0
same,"Rash, events",[1]; sitagliptin group n = 19,0
same,"Sore Throat, events",[1]; sitagliptin group n = 19,1
same,"Stuffy Nose, events",[1]; sitagliptin group n = 19,0
same,"Thinning of hair, events",[1]; sitagliptin group n = 19,0
same,"Thirst, events",[1]; sitagliptin group n = 19,1
same,"UTI, events",[1]; sitagliptin group n = 19,1
same,Engraftment of haematopoietic stem and progenitor cells in bone marrow,[2],improve engraftment of haematopoietic stem and progenitor cells in bone marrow
same,PRL transcript level normalized to L19,PRL,not significantly different
same,Cardiac function,[3],failed to improve cardiac function
same,"Second biopsy CFU count, Median (IQR, Range)","[4]; RPL patients, oral 100 mg once daily for 3 menstrual cycles","14.0 (8.0-29.0, 3-145)^‡ per 1500 EnSC"
same,"Median increase in CFU count, second compared to baseline biopsy",[4]; after 3 cycles of sitagliptin,+7 per 1500 EnSC
same,"Mean CFU count in second biopsy higher than placebo group, adjusted for baseline CFU count","[4]; after 3 cycles, oral 100 mg daily",51%
same,"Mean CFU count, second biopsy","[4]; all data, RPL patients, oral 100 mg once daily for 3 menstrual cycles",27.67 per 1500 EnSC
same,"Mean CFU count, second biopsy","[4]; all data, RPL patients, oral 100 mg once daily for 3 menstrual cycles, listed as Sitagliptin",27.7 (35.8) per 1500 EnSC and 27.7 per 1500 EnSC
same,Average increase in CFU counts compared to baseline biopsy,[4]; sitagliptin given for 3 menstrual cycles,68%
same,"Baseline CFU count, Mean (SD)",[4]; [6],16.1 (19.6) per 1500 EnSC
same,"Baseline CFU count, Median (IQR, Range)",[4]; [6],"8.5 (4.5-17.8, 1-74) per 1500 EnSC"
same,"Mean CFU count, second biopsy","[4]; subgroup excluding women with outlying CFU counts (>20 colonies per 1500 cells), after 3 cycles",14.42 per 1500 EnSC
same,SCARA5 mRNA level normalized to L19,SCARA5,not altered significantly
same,Termination of pregnancy at 16 weeks for a fetal abnormality,[5],one
same,Live births,[5]; 12 pregnancies,8
same,Spontaneous pregnancy losses before 12 weeks of gestation,[5]; 12 pregnancies,3
